Molecules are shown by their SMILES.

The target in the test is T1, human melanin concentrating hormone receptor (MCHR1) (Homo sapiens, UniProt Q99705, A5T/E4Q).
T1 construct: expressed in transfected cells; host or cells: HEK-293 (stably transfected), membranes
Briefly: Radioligand binding assay for assessment of MCHR1 activity. To be noted: membranes from HEK-293 cells expressing a mutated (E4Q, A5T) hMCHR1 receptor; competition with 0.06 - 0.1 nM [Phe13, [125I]Tyr19]-MCH; 90 min. The protocol:
Radioligand Binding Assay for Assessment of MCHR1 Activity
An in vitro binding assay was used to determine the compound Ki value or ability to antagonize binding of a peptide agonist to the human melanin concentrating hormone receptor (MCHR1). […] Binding experiments were carried out with 0.5-1.0 µg of membrane protein incubated in a total of 0.2 mL in 25 mM HEPES (pH 7.4) with 10 mM MgCl2, 2 mM EGTA, and 0.1% BSA (Binding Buffer) for 90 min. For competition binding assays, reactions were carried out in the presence of with 0.06 - 0.1 nM [Phe^13, [^125I]Tyr^19]-MCH and increasing concentrations of unlabeled test molecules. […] Filters were dried, 0.05 mL MicroScint 20 was added to each well and radioactivity was subsequently quantified by scintillation counting on a TOPCOUNT® microplate scintillation counter (Packard). Inhibitory constants were determined by nonlinear least squares analysis using a four parameter logistic equation.

T1 sequence (Q99705 whole entry E4Q/A5T): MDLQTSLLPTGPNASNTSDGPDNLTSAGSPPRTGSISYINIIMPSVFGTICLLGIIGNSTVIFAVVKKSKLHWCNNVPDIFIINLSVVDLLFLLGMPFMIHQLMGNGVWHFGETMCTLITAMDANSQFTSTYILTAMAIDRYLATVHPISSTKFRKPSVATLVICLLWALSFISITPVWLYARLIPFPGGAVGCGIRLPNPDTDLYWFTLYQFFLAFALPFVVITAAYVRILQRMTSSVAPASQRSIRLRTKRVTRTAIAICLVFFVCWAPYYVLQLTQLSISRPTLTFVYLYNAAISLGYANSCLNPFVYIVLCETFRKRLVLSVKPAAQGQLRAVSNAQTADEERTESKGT

As for `Cc1cc(N2CCC(Oc3ccc(-c4ccc(F)cc4)cc3)C2=O)ccc1OC[C@@H](O)CS(C)(=O)=O` (stereo partly drawn) [Example 99], the affinity corresponds to a Ki of 19 nM. Under `Cc1cc(N2CCC(Oc3ccc(C4CC4)cc3)C2=O)ccc1OC[C@@H](O)CS(C)(=O)=O` (stereo partly drawn) [Example 100] stands 42 nM; under `Cc1cc(N2CCC(Oc3ccc(-c4ccccc4)cc3)C2=O)ccc1OCC[S+](C)[O-]` (stereo not drawn) [Example 102], 6 nM.

The compound `Cc1cc(N2CCC(Oc3ccc(OC(F)(F)F)cc3)C2=O)ccc1OCCS(C)(=O)=O` (stereo not drawn) [Example 103] returned a Ki of 40 nM. Consider `Cc1cc(N2CCC(Oc3ccc(-c4ccccc4)cc3)C2=O)ccc1OCCS(C)(=O)=O` (stereo not drawn) [Example 104], for which the Ki was 1 nM. Under `Cc1cc(N2CCC(Oc3ccc(-c4cccc(F)c4)cc3)C2=O)ccc1OCCS(C)(=O)=O` (stereo not drawn) [Example 108] stands 5 nM; under `Cc1cc(N2CCC(Oc3ccc(-c4ccc(F)cc4)cc3)C2=O)ccc1OCCS(C)(=O)=O` (stereo not drawn) [Example 109], 6 nM; under `Cc1cc(N2CC[C@@H](Oc3ccc(-c4ccc(F)cc4)cc3)C2=O)ccc1OCCS(C)(=O)=O` [Example 110], 3 nM.

`Cc1cc(N2CC[C@H](Oc3ccc(-c4ccc(F)cc4)cc3)C2=O)ccc1OCCS(C)(=O)=O` [Example 111]: affinity was put at a Ki of 1740 nM.

Regarding `Cc1cc(N2CCC(Oc3ccc(C(F)(F)F)cc3)C2=O)ccc1OCCS(C)(=O)=O` (stereo not drawn) [Example 112], the affinity, expressed as Ki, was 31 nM.

`Cc1cc(N2CC=C(Oc3ccc(OC(F)(F)F)cc3)C2=O)ccc1OCC(C)(C)O` [Example 117] yielded a Ki of 25 nM. Next, `Cc1cc(N2CC=C(Oc3ccc(C4CC4)cc3)C2=O)ccc1OCC(C)(C)O` [Example 118]: 9 nM; `COc1cc(N2CC=C(Oc3ccc(C4CC4)cc3)C2=O)ccc1OCC(C)(O)CO` (stereo not drawn) [Example 119]: 4 nM.

In turn, `COc1cc(N2CC=C(Oc3ccc(C4CC4)cc3)C2=O)ccc1OC[C@H](O)C1CC1` [Example 121] displayed a Ki of 2 nM. Under `COc1cc(N2CC=C(Oc3ccc(-c4ccccc4)cc3)C2=O)ccc1OCC(C)(C)O` [Example 122] stands 3 nM.

In general, Ki refers to the equilibrium dissociation constant of an inhibitor or competing ligand from its target.

(Values after patent EP2892896B1 (Bristol-Myers Squibb Company, priority 2012, dated 2014).)
